From patent US9657018B2, “Antagonists acting at multiple prostaglandin receptors for the treatment of inflammation” (Allergan, Inc., priority 2014, dated 2017)
Where a name gives a salt, the structure may show the parent alone.

Columns and labels:
Format in all cases: cell-based
[1] = target: T1, human prostanoid EP4 receptor (Homo sapiens, UniProt P35408); assay: FLIPR Ca2+ signaling antagonist assay, EP4 receptor stable cell line; settings: human recombinant EP4 + chimeric Gqs in HEK-293 EBNA cells; standard agonist PGE2; NA = no antagonism or Kb>=10,000 nM
T1 construct: expressed in transfected cells
Experimental: (§1) The above compounds were tested for PG antagonist activity as follows using human recombinant prostanoid receptor (DP1, EP1-4, FP, IP and TP) stable cell lines:
(§2) In order to measure the response of Gs and Gi coupled prostanoid receptors as a Ca^2+ signal, chimeric G protein cDNAs were used. Stable cell lines over-expressing human prostanoid DP1, EP1-4, FP, IP, and TP receptors were established as follows:
(§3) Briefly, human prostanoid DP1, EP2, and EP4 receptor cDNAs were co-transfected with chimeric Gqs cDNA containing a haemagglutanin (HA) epitope; human prostanoid EP3 receptors were co-transfected with chimeric Gqi-HA; human EP1, FP, IP, and TP receptor cDNAs were expressed with no exogenous G-proteins. Gqs and Gqi chimeric cDNAs (Molecular Devices, Sunnyvale, Calif., U.S.A.), as well as cDNAs of prostanoid receptors, were cloned into a pCEP4 vector with a hygromycin B selection marker. Transfection into HEK-293 EBNA (Epstein-Barr virus nuclear antigen) cells was achieved by the FuGENE 6 transfection Reagent (Roche Applied Science, Indianapolis, Ind., USA). Stable transfectants were selected according to hygromycin resistance. Because Gqs and Gqi contained an HA epitope, G-protein expression was detected by Western blotting analysis using anti-mouse HA monoclonal antibody and horseradish peroxidase (HRP)-conjugated secondary antibody, while functional expression of prostanoid receptors was detected by FLIPR screening (Matias et al., 2004). These stable cell lines were validated using previously published antagonists at 10 μM against serial dilutions of standard agonists by FLIPR functional assays for Ca^2+ Signaling (as described below).
(§4) Ca^2+ signaling studies were performed using a FLIPR TETRA system (Molecular Devices, Sunnyvale, Calif., USA) in the 384-format. This is a high-throughput instrument for cell-based assays to monitor Ca^2+ signaling associated with GPCRs and ion channels. Cells were seeded at a density of 5×10^4 cells/well in BioCoat poly-D-lysine coated, black wall, clear bottom 384-well plates (BD Biosciences, Franklin lakes, NJ, USA) and allowed to attach overnight in an incubator at 37° C. The cells were then washed twice with HBSS-HEPES buffer (Hanks' balanced salt solution without bicarbonate and phenol red, 20 mM HEPES, pH 7.4) using an ELx405 Select CW Microplate Washer (BioTek, Winooski, Vt., USA). After 60 min of dye-loading in the dark using the Ca^2+-sensitive dye Fluo-4AM (Invitrogen, Carlsbad, Calif., USA), at a final concentration of 2×10^−6M, the plates were washed 4 times with HBSS-HEPES buffer to remove excess dye and leaving 50 μl of buffer in each well. The plates were then placed in the FLIPR TETRA instrument and allowed to equilibrate at 37° C. AGN-211377 was added in a 25 μl volume to each well to give final concentrations of 0.1 μl. M, 0.4M, 1 μM, 3 μl. M, 10 μl. M, and 30 μl. M; or 0.067 μM, 0.4M, 0.67 μM, and 1 μM for cells over-expressing TP receptors. After 4.5 minutes, a 7-point serial dilution of the standard agonist for the corresponding receptor, in a 25 μl volume was injected at the final concentrations from 10^−11M to 10^−5M in 10-fold serial dilution increments for cells expressing human recombinant DP1, EP1, EP2, EP3, EP4, FP, and IP receptors. The dose range for the standard agonist for human recombinant TP receptors was from 10^−12M to 10^−6M. HBSS-HEPES buffer was used as the negative control for the standard agonists. Cells were excited with LED (light emitting diode) excitation at 470-495 nm and emission was measured through an emission filter at 515-575 nm. Assay plates were read for 3.5 minutes using the FLIPR^TETRA. The peak increase in fluorescence intensity was recorded for each well. On each plate, negative controls, dose response of positive controls, and co-treatments of antagonist-agonist for each dose were in triplicates. Standard agonists were as follows: DP=BW 245C, EP1-EP4=PGE2, FP=17-phenyl-PGF2a, IP=Cicaprost, and TP=U-46619. […]

[2] = target: T2, human prostanoid FP receptor (Homo sapiens, UniProt P43088); assay: FLIPR Ca2+ signaling antagonist assay, FP receptor stable cell line; settings: human recombinant FP in HEK-293 EBNA cells; standard agonist 17-phenyl-PGF2a; NA = no antagonism or Kb>=10,000 nM
T2 construct: expressed in transfected cells
Experimental: as §1, §2, §3, §4

[3] = target: T3, human prostanoid EP2 receptor (Homo sapiens, UniProt P43116); assay: FLIPR Ca2+ signaling antagonist assay, EP2 receptor stable cell line; parameters: key to FLIPR data EP2 (Kb): PAg = partial agonist; Ag = agonist; NA = not active; settings: human recombinant EP2 + chimeric Gqs in HEK-293 EBNA cells; standard agonist PGE2; NA = no antagonism or Kb>=10,000 nM
T3 construct: expressed in transfected cells
Experimental: as §1, §2, §3, §4

[4] = target: T4, human prostanoid EP1 receptor (Homo sapiens, UniProt P34995); assay: FLIPR Ca2+ signaling antagonist assay, EP1 receptor stable cell line; settings: human recombinant EP1 in HEK-293 EBNA cells; standard agonist PGE2; NA = no antagonism or Kb>=10,000 nM
T4 construct: expressed in transfected cells
T4 sequence (P34995 1-402): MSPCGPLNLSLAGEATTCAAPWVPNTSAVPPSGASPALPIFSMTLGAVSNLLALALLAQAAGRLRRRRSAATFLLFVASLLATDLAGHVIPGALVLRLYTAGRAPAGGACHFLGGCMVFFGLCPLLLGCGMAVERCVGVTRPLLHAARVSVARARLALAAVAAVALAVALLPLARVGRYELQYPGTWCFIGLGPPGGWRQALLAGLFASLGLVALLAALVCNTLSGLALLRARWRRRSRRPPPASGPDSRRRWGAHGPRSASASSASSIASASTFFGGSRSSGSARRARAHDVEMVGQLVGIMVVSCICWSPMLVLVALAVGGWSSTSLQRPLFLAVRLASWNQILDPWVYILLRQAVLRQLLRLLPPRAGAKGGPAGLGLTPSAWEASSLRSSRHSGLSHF
Experimental: as §1, §2, §3, §4

[5] = target: T5, human prostanoid IP receptor (Homo sapiens, UniProt P43119); assay: FLIPR Ca2+ signaling antagonist assay, IP receptor stable cell line; parameters: key to FLIPR data IP (Kb): PAg = partial agonist; Ag = agonist; NA = not active; settings: human recombinant IP in HEK-293 EBNA cells; standard agonist Cicaprost; NA = no antagonism or Kb>=10,000 nM
T5 construct: expressed in transfected cells
Experimental: as §1, §2, §3, §4

T1 sequence (P35408 whole entry): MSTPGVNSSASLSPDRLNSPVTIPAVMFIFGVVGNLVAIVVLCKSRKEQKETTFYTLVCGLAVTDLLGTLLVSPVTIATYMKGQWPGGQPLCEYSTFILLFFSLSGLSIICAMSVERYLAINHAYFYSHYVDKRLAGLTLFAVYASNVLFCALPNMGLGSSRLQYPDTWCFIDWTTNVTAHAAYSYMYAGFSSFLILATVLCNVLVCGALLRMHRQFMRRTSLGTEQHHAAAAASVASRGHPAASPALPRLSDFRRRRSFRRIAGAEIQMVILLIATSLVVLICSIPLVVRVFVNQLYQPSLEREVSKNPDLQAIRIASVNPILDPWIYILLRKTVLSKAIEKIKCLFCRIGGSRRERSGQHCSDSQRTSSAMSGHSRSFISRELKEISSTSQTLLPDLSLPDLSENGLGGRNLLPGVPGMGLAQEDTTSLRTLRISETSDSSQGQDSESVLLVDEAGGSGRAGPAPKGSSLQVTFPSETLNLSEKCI
T5 sequence (P43119 whole entry): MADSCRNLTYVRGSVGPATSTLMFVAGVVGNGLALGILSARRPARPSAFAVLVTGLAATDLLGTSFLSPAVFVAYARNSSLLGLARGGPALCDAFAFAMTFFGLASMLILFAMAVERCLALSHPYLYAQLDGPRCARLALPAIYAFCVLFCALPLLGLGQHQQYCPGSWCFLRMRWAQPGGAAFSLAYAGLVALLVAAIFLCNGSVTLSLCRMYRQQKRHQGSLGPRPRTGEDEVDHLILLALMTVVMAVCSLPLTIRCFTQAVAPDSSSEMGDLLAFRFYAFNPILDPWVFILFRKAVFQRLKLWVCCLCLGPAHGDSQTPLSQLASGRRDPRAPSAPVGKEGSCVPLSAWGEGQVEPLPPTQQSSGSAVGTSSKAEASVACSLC
T3 sequence (P43116 whole entry): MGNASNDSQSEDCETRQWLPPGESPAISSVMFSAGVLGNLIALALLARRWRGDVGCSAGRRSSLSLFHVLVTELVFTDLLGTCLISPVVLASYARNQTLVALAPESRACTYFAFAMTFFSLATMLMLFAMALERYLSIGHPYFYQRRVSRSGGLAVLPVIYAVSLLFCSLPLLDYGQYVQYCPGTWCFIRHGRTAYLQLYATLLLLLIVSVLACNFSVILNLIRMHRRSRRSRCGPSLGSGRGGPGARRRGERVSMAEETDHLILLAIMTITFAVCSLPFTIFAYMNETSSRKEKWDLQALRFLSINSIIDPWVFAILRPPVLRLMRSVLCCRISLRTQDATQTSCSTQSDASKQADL
T2 sequence (P43088 whole entry): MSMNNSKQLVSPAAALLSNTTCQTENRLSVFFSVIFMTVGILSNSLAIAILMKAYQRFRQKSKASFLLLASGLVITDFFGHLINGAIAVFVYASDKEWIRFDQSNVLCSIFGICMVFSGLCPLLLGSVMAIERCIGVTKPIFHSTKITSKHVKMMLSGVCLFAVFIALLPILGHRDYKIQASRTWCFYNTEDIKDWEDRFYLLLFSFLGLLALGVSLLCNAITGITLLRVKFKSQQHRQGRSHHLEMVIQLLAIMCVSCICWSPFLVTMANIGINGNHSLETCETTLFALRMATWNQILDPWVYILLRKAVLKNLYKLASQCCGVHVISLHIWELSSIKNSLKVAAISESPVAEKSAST

Row | Kb [1] [µM] | Kb [2] [µM] | Kb [3] [µM] | Kb [4] [µM] | Kb [5] [µM] | FLIPR data EP2 (Kb) [3] | FLIPR data IP (Kb) [5] | Structure (SMILES)
1 | 0.024 | 0.07 | 9.2 | 0.73 | > 10 | – | – | CC(C)Cn1ncc2cc(Cl)cc(Cn3ncc4cc(C(=O)O)ccc43)c21 [Compound 41, 1-(5-Chloro-1-isobutyl-1H-indazol-7-ylmethyl)-1H-indazole-5-carboxylic acid]
2 | 0.022 | 0.04 | > 10 | 2.3 | > 10 | – | – | CC(C)Cn1ncc2cc(Br)cc(Cn3ncc4cc(C(=O)O)ccc43)c21 [Compound 42, 1-(5-Bromo-1-isobutyl-1H-indazol-7-ylmethyl)-1H-indazole-5-carboxylic acid]
3 | 0.1 | 0.7 | > 10 | > 10 | > 10 | – | – | CC(C)Cn1ncc2cc(F)cc(Cn3ncc4cc(C(=O)O)ccc43)c21 [Compound 43, 1-(5-Fluoro-1-isobutyl-1H-indazol-7-ylmethyl)-1H-indazole-5-carboxylic acid]
4 | 0.09 | 1.9 | > 10 | 9.8 | 8.9 | – | – | CC(C)Cn1ncc2cc(Cl)cc(Cn3ncc4cc(C(=O)O)cnc43)c21 [Compound 49, 1-(5-Chloro-1-isobutyl-1H-indazol-7-ylmethyl)-1H-pyrazolo[3,4-b]pyridine-5-carboxylic acid]
5 | 0.08 | > 10 | > 10 | > 10 | > 10 | – | – | CC(C)Cn1ncc2cc(Cl)cc(Cn3cnc4cc(C(=O)O)ccc43)c21 [Compound 50, 1-(5-Chloro-1-isobutyl-1H-indazol-7-ylmethyl)-1H-benzoimidazole-5-carboxylic acid]
6 | 0.28 | 4.9 | > 10 | > 10 | 8 | – | – | CC(C)Cn1ncc2cc(Cl)cc(Cn3cnc4cc(C(=O)O)cnc43)c21 [Compound 51, 3-(5-Chloro-1-isobutyl-1H-indazol-7-ylmethyl)-3H-imidazo[4,5-b]pyridine-6-carboxylic acid]
7 | 0.09 | 0.7 | > 10 | 0.6 | 5.5 | – | – | CC(C)Cn1ncc2cc(Cl)cc(Cn3ccc4cc(C(=O)O)cnc43)c21 [Compound 52, 1-(5-Chloro-1-isobutyl-1H-indazol-7-ylmethyl)-1H-pyrrolo[2,3-b]pyridine-5-carboxylic acid]
8 | 0.38 | 0.6 | > 10 | > 10 | 9.5 | – | – | Cc1nn(Cc2cc(Br)cc3cnn(CC(C)C)c23)c2ncc(C(=O)O)cc12 [Compound 54, 1-(5-Bromo-1-isobutyl-1H-indazol-7-ylmethyl)-3-methyl-1H-pyrazolo[3,4-b]pyridine-5-carboxylic HCl salt]
9 | 0.2 | 0.6 | > 10 | > 10 | > 10 | – | – | CC(C)Cn1ncc2cc(Cl)cc(Cc3ncc4cc(C(=O)O)ccn34)c21 [Compound 61, 3-[(5-Chloro-1-isobutyl-indazol-7-yl)methyl]imidazo[1,5-a]pyridine-7-carboxylic acid]

The next lines start with the molecule.

Row | Structure (SMILES) | Kb [1] [µM] | Kb [2] [µM] | Kb [3] [µM] | Kb [4] [µM] | Kb [5] [µM] | FLIPR data EP2 (Kb) [3] | FLIPR data IP (Kb) [5]
10 | CC(C)Cn1ncc2cc(C(F)(F)F)cc(Cn3ncc4cc(C(=O)O)ccc43)c21 [Compound 44, 1-(1-Isobutyl-5-trifluoromethyl-1H-indazol-7-ylmethyl)-1H-indazole-5-carboxylic acid] | 0.028 | 0.15 | – | 1.5 | – | PAg | PAg
11 | CC(C)Cn1ncc2cc(OC(F)(F)F)cc(Cn3ncc4cc(C(=O)O)ccc43)c21 [Compound 45, 1-(1-Isobutyl-5-trifluoromethoxy-1H-indazol-7-ylmethyl)-1H-indazole-5-carboxylic acid] | 0.005 | 0.08 | > 10 | 0.8 | – | – | Ag
12 | CC(C)n1ncc2cc(Br)cc(Cn3ncc4cc(C(=O)O)ccc43)c21 [Compound 46, 1-(5-Bromo-1-isopropyl-1H-indazol-7-ylmethyl)-1H-indazole-5-carboxylic acid] | 0.33 | 0.2 | > 10 | 3 | > 10 | – | –
13 | CCC(CC)Cn1ncc2cc(Br)cc(Cn3ncc4cc(C(=O)O)ccc43)c21 [Compound 47, 1-[5-Bromo-1-(2-ethyl-butyl)-1H-indazol-7-ylmethyl]-1H-indazole-5-carboxylic acid] | 1.7 | 3 | 5 | 0.5 | 1 | – | –
14 | CCCn1ncc2cc(Cl)cc(Cn3ncc4cc(C(=O)O)ccc43)c21 [Compound 48] | 0.13 | 0.5 | > 10 | > 10 | > 10 | – | –
15 | Cc1nn(Cc2cc(Br)cc3cnn(CC(C)C)c23)c2ccc(C(=O)O)cc12 [Compound 53, 1-(5-Bromo-1-isobutyl-1H-indazol-7-ylmethyl)-3-methyl-1H-indazole-5-carboxylic acid] | 0.09 | 0.07 | > 10 | 5.7 | > 10 | – | –
16 | CC(C)Cn1ncc2cc(C(F)(F)F)cc(Cn3cnc4cc(C(=O)O)ccc43)c21 [Compound 55, 1-(1-Isobutyl-5-trifluoromethyl-1H-indazol-7-ylmethyl)-1H-benzoimidazole-5-carboxylic acid] | 0.08 | 3 | > 10 | 4 | 8.9 | – | –
17 | CC(C)Cn1ncc2cc(OC(F)(F)F)cc(Cn3cnc4cc(C(=O)O)ccc43)c21 [Compound 56, 1-(1-Isobutyl-5-trifluoromethoxy-1H-indazol-7-ylmethyl)-1H-benzoimidazole-5-carboxylic acid] | 0.006 | > 10 | > 10 | 9 | 9 | – | –
